Reference: PubChem BioAssay (NCI)
Values joined by “and” are separate entries in the source; they are usually repeats but may differ in a detail not shown here. Equal values may be shown once.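 Assay format: 96-well plates, 48-hour exposure. TGI denotes the concentration required for complete inhibition of growth.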

Key:
Experiment in all cases: growth of human tumour cells (NCI), 48 h
[1] = tested on: RXF 393 renal
[2] = tested on: HCC-2998 colon
[3] = tested on: UACC-62 melanoma
[4] = tested on: A498 renal
[5] = tested on: SF-295 CNS
[6] = tested on: OVCAR-5 ovarian
[7] = tested on: OVCAR-4 ovarian
[8] = tested on: SK-MEL-5 melanoma
[9] = tested on: SK-MEL-28 melanoma
[10] = tested on: NCI-H226 lung
[11] = tested on: NCI-H522 lung
[12] = tested on: LOX IMVI melanoma
[13] = tested on: EKVX NSCLC
[14] = tested on: HS 578T breast
[15] = tested on: SK-MEL-2 melanoma
[16] = tested on: BT-549 breast
[17] = tested on: COLO 205 colon
[18] = tested on: MDA-MB-435
[19] = tested on: HL-60(TB) leukemia

| Structure (SMILES) | TGI [1] | TGI [2] | TGI [3] | TGI [4] | TGI [5] | TGI [6] | TGI [7] | TGI [8] | TGI [9] | TGI [10] | TGI [11] | TGI [12] | TGI [13] | TGI [14] | TGI [15] | TGI [16] | TGI [17] | TGI [18] | TGI [19] |
| --- | --- | --- | --- | --- | --- | --- | --- | --- | --- | --- | --- | --- | --- | --- | --- | --- | --- | --- | --- |
| CC(C)C(C/C=C1\CC(CO)(COC(=O)C(C)(C)C)OC1=O)C(C)C (configuration not stated) | 33.5 µM | 24.8 µM | 31.3 µM | 28.7 µM | 18.1 µM | 25.4 µM | 31.9 µM | 20 µM | 26.4 µM | 19.8 µM | 29 µM | 17.7 µM | 24.8 µM | 11.8 µM | 39.5 µM | 24.5 µM | 11.4 µM | 25.3 µM |  |
| COc1ccc(N=NC(=O)NC(CC(C)C)C(=O)NC(C)C(=O)O)cc1 (configuration not stated) | > 100 µM | > 100 µM | > 100 µM | > 100 µM | > 100 µM | > 100 µM | > 100 µM | > 100 µM | > 100 µM | > 100 µM | > 100 µM |  | > 100 µM | > 100 µM | > 100 µM | > 100 µM | 16.3 µM | > 100 µM | > 100 µM |
| COCOC1C=CCCCC2=CC(C)=C(CC1)O2 (configuration not stated) | > 100 µM | > 100 µM | > 100 µM | > 100 µM | > 100 µM | > 100 µM | > 100 µM | > 100 µM | > 100 µM | > 100 µM | > 100 µM | > 100 µM | > 100 µM | > 100 µM |  | > 100 µM | > 100 µM | > 100 µM |  |
| CC1=C(/C=C/C(C)=C/C=C/C(C)=C/C(=O)OC2CC(n3cc(F)c(=O)[nH]c3=O)OC2CO)C(C)(C)CCC1 (configuration not stated) | 24 µM | 26.8 µM | 4.96 µM |  | 14.3 µM | 36.8 µM | 21.5 µM | 13.9 µM | 24.6 µM | 52.7 µM | 11.4 µM | 20.6 µM | 32.9 µM | > 56 µM | 55.5 µM | 22.3 µM | 25.8 µM | 25.2 µM | 7.37 µM |
| O=C1NC(N/N=C\C(O)C(O)C(O)C(O)CO)=N/C1=C/c1ccc(Cl)cc1 (configuration not stated) | > 100 µM | > 100 µM |  | > 100 µM | > 100 µM | > 100 µM | > 100 µM and 50.7 µM | > 100 µM | > 100 µM | > 100 µM | > 100 µM | > 100 µM | > 100 µM | > 100 µM | > 100 µM | > 100 µM | > 100 µM | > 100 µM | > 100 µM |
| CSc1ccsc1-c1sc(-c2cc(SC)c(-c3sc(-c4cc(SC)c(-c5sccc5SC)s4)cc3SC)s2)cc1SC | > 100 µM | > 100 µM | > 100 µM | > 100 µM | > 100 µM | > 100 µM | > 100 µM | > 100 µM | > 100 µM |  | > 100 µM | > 100 µM | > 100 µM | > 100 µM | > 100 µM | > 100 µM | > 100 µM | 56.5 µM | 8.9 µM |
